Test results as given in US9457033B2, “Steroid alkaloids and uses thereof as antimicrobial agents against electron transport-deficient microbes and as potentiators for antimicrobial agents against pathogenic bacteria” (priority 2011, dated 2016).
Converted amounts (≈) assume the structure as drawn. Read-outs that look alike come from different tables or passages of the source. Marks after values point to notes of the source that are not given here.

Tests used:
S. aureus SCV CF07-S = experiment: MIC, microdilution in BHI 48 h (Examples 1, 3); format: cell-based, Staphylococcus aureus
S. aureus ATCC 29213 = experiment: MIC, microdilution in BHI 48 h (Examples 1, 3); format: cell-based, Staphylococcus aureus
normal strain CF07-L = experiment: Broth growth with gentamicin or tomatidine, visually evaluated (FIG. 5A); details: gentamicin at 4 μg/ml or tomatidine at 0.12 μg/ml alone, 48 h
[1] = system: SCV strain CF07-S in shCFTR cells; experiment: Intracellular infection of polarized CF airway epithelial cells (shCFTR); format: cell-based, Staphylococcus aureus; details: 1.25 and 12.5 μg/ml of tomatidine; 48 h post-internalization; FIG. 4B
S. aureus SCV CF1D-S = experiment: MIC, microdilution in BHI 48 h; format: cell-based, Staphylococcus aureus; details: Staphylococcus aureus, SCVCF1DS
[2] = system: S. aureus CF07-L (normal strain); experiment: MIC, microdilution in BHI 48 h (Examples 1, 3); format: cell-based, Staphylococcus aureus
[3] = system: S. aureus CF1A-L (normal strain); experiment: MIC, microdilution in BHI 48 h; format: cell-based, Staphylococcus aureus; details: Staphylococcus aureus; CF1A-L, normal strain; read-out: MIC
[4] = system: S. aureus ATCC 29213 in co-culture with P. aeruginosa PA14; experiment: Viability in co-culture with P. aeruginosa PA14, CAMHB; format: cell-based, Staphylococcus aureus; details: for Viability of S. aureus: SA + PA + TO at 8 μg/ml
Source text: Bacteria were sampled, serially diluted and plated on tryptic soy agar for CFU determinations. […] Mannitol-salt agar plates were used to selectively evaluate S. aureus CFU when in co-culture with P. aeruginosa.

S. aureus SCV CF6A-S = experiment: microbe, parasite or virus in culture; format: cell-based; details: Staphylococcus aureus, SCVCF6AS; Tomatidine (50 μg); thymidine auxotrophy; 24 hours at 37° C. with O2; DMSO control 0; read-out: Diameter of inhibition zone
[5] = system: S. aureus Newbould (normal strain); experiment: MIC, microdilution in BHI 48 h; format: cell-based, Staphylococcus aureus; details: Staphylococcus aureus; Newbould, normal strain; read-out: MIC
S. aureus SCV CF41A-S = experiment: microbe, parasite or virus in culture; format: cell-based; details: Staphylococcus aureus, SCVCF41AS, 24 h, read-out: Diameter of inhibition zone
[6] = system: S. aureus SCV NewbouldΔhemB; experiment: MIC, microdilution in BHI 48 h; format: cell-based, Staphylococcus aureus; details: Staphylococcus aureus

C[C@H]1CC[C@]2(NC1)O[C@H]1C[C@H]3[C@@H]4CC[C@H]5C[C@@H](O)CC[C@]5(C)[C@H]4CC[C@]3(C)[C@H]1[C@@H]2C [Tomatidine, tomatidine]
MIC (S. aureus SCV CF07-S; CF07-S + HQNO at 20 μg/ml): 0.12 µg/mL | MIC (S. aureus SCV CF07-S; CF07-S, without HQNO): 0.12 µg/mL (≈ 0.289 µM) | MIC (S. aureus SCV CF07-S; Staphylococcus aureus, SCVCF07S): 0.12 µg/mL (≈ 0.289 µM) | MIC (S. aureus ATCC 29213; ATCC 29213 + HQNO at 20 μg/ml): 0.12 to 0.25 µg/mL | MIC (S. aureus ATCC 29213; ATCC 29213, without HQNO): >16 µg/mL | MIC (S. aureus ATCC 29213; ATCC 29213 in MHBCA): >16 µg/mL | MIC (S. aureus ATCC 29213; Staphylococcus aureus, ATCC29213, ATCC 29213 in BHI, read-out: MIC): > 16 µg/mL | MIC (S. aureus ATCC 29213; Staphylococcus aureus, ATCC29213, ATCC 29213, 1 μg/ml CCCP, read-out: MIC in presence of CCCP): 0.12 µg/mL | growth, visually evaluated (normal strain CF07-L): does not | intracellular SCVs CF07-S vs DMSO-treated control cells [1]: significantly less | MIC (S. aureus SCV CF1D-S): 0.12 µg/mL (≈ 0.289 µM) | MIC ([2]; CF07-L + HQNO at 20 μg/ml): 0.5 µg/mL | MIC ([2]; CF07-L, without HQNO): >16 µg/mL | MIC ([2]; Staphylococcus aureus, CF07-L, normal strain, read-out: MIC): > 16 µg/mL | MIC [3]: > 16 µg/mL | Viability of S. aureus ([4]; 0 h): 5.4 ± 0.1 Log10 CFU/ml | Viability of S. aureus ([4]; 24 h): 2 ± 1 ^b Log10 CFU/ml | type of antibacterial effect ([4]; in co-culture with P. aeruginosa, tomatidine 8 μg/ml): bactericidal | zone of inhibition at 50 µg/disc (S. aureus SCV CF6A-S): 23 mm | MIC [5]: > 16 µg/mL | zone of inhibition at 50 µg/disc (S. aureus SCV CF41A-S): 21.5 mm | MIC [6]: 0.12 µg/mL (≈ 0.289 µM)
